Source: ChEMBL document CHEMBL6109139, “Rational Design of the First Dual Agonist at Trace Amine-Associated Receptor 1 and 5-HT2C Receptors Based on Binding Pocket Similarity for the Treatment of Schizophrenia and Alzheimer's Disease-Related Psychosis” (J Med Chem, 2025)
The source made the active and inactive calls. The rule behind the calls is not given here.

Experiments:
[1] = target: 3',5'-cyclic-AMP phosphodiesterase 4D (Homo sapiens) (UniProt Q08499); assay: Binding affinity to PDE4D2 receptor (unknown origin) at 10 uM by radioligand binding assay relative to control
Chain of 3',5'-cyclic-AMP phosphodiesterase 4D (Homo sapiens) (Q08499 whole entry): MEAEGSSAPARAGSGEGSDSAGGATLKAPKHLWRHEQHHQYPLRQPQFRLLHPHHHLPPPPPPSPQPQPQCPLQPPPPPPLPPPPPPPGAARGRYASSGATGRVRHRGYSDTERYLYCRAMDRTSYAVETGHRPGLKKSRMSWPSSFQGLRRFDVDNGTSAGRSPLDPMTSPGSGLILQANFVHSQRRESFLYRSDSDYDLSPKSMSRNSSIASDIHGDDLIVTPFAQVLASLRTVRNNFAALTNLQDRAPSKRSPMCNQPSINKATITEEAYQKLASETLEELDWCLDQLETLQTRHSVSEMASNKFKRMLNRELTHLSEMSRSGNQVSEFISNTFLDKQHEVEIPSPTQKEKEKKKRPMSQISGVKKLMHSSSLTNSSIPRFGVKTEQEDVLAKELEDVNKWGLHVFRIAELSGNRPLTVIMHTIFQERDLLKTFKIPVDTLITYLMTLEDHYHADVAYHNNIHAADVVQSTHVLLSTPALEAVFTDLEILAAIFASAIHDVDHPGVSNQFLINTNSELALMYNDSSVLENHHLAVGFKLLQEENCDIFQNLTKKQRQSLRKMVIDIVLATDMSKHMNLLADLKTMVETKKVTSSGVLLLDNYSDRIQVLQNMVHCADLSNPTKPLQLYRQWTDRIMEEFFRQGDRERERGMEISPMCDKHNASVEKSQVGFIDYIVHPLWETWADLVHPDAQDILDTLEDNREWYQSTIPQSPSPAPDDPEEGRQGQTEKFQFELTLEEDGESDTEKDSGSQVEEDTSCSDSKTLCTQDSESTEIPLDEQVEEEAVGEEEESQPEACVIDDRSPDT

[2] = Metabolic stability in human liver microsomes assessed as intrinsic clearance at 1 uM incubated for 60 mins by LC-MS/MS analysis; type: ADME, Microsome; conditions: read-out: CLH
Mus musculus [3] = assay: Antipsychotic activity against MK-801 induced hyperlocomotion in male C57BL/6J mouse model assessed as reduction in hyperlocomotive state at 5 mg/kg, IG pretreated with compound followed by MK-801 addition and measured after 30 mins by open field test; type: functional, organism-based
[4] = target: Tyrosine-protein kinase Lck (Homo sapiens) (UniProt P06239); assay: Binding affinity to LCK receptor (unknown origin) at 10 uM by radioligand binding assay relative to control
[5] = Plasma protein binding in human assessed as unbound fraction by LC-MS/MS analysis; type: ADME, cell-free
[6] = target: Adenosine receptor A2a (Homo sapiens) (UniProt P29274); assay: Binding affinity to ADORA2A (unknown origin) at 10 uM by radioligand binding assay relative to control
Chain of Adenosine receptor A2a (Homo sapiens) (P29274 whole entry): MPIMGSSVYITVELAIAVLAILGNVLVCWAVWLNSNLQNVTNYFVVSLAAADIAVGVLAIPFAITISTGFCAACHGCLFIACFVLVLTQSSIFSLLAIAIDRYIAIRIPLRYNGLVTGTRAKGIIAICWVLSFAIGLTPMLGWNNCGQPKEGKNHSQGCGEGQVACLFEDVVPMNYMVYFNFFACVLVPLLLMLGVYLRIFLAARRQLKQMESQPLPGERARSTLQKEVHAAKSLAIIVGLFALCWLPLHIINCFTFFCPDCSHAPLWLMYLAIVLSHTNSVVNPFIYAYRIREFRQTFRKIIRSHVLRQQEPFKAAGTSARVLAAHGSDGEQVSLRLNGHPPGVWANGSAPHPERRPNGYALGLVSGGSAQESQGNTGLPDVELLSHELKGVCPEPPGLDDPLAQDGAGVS

[7] = test system: 5-hydroxytryptamine receptor 2C (Homo sapiens), P28335 [W324A]; assay: Agonist activity at 5HT2CR W324A mutant (unknown origin) expressed in HEK293 cells assessed as IP1 level by HTRF IP1 competitive binding assay; type: cell-based
Chain of 5-hydroxytryptamine receptor 2C (Homo sapiens), P28335 [W324A] (P28335 whole entry W324A): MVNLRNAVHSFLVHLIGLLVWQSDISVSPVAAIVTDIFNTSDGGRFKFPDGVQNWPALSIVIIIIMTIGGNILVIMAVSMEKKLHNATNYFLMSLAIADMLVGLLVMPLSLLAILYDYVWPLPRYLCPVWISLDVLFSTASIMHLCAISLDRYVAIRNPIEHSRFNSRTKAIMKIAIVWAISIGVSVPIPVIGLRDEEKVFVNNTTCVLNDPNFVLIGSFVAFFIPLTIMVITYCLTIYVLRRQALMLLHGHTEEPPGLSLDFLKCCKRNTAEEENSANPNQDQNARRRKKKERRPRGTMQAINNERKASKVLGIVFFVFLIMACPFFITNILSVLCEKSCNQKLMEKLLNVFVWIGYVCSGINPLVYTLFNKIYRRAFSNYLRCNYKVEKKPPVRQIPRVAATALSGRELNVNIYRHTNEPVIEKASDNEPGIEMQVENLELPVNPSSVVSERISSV

[8] = target: 5-hydroxytryptamine receptor 2C (Mus musculus) (UniProt P34968); assay: Agonist activity at mouse 5-HT2CR by measuring maximum efficacy relative to control; type: functional; conditions: filed as agonist
KCNQ1 = KCNQ1 (Homo sapiens, UniProt P51787); assay: Binding affinity to human KCNQ1 receptor at 10 uM by radioligand binding assay relative to control; conditions: read-out: Activity
Chain of KCNQ1 (P51787 whole entry): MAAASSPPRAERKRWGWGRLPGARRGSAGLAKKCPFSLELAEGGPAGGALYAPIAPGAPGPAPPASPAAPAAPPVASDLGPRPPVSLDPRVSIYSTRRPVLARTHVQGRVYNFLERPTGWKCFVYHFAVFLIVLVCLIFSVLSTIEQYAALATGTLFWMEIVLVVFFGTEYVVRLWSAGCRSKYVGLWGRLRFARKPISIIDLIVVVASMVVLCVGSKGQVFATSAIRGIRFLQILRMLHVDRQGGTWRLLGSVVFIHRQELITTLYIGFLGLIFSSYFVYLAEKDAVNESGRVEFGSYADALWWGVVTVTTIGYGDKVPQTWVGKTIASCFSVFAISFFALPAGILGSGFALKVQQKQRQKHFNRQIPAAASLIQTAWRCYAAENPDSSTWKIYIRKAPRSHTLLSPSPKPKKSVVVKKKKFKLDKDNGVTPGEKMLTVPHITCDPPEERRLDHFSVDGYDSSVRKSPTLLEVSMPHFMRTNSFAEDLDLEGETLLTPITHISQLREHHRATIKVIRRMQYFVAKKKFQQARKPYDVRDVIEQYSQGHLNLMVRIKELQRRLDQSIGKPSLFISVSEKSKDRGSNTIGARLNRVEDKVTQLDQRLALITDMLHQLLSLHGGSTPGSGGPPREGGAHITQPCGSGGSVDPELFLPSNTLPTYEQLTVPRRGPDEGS

[9] = target: Alpha-2A adrenergic receptor (Homo sapiens) (UniProt P08913); assay: Binding affinity to alpha 2A (unknown origin) at 10 uM by radioligand binding assay relative to control
Chain of Alpha-2A adrenergic receptor (Homo sapiens) (P08913 whole entry): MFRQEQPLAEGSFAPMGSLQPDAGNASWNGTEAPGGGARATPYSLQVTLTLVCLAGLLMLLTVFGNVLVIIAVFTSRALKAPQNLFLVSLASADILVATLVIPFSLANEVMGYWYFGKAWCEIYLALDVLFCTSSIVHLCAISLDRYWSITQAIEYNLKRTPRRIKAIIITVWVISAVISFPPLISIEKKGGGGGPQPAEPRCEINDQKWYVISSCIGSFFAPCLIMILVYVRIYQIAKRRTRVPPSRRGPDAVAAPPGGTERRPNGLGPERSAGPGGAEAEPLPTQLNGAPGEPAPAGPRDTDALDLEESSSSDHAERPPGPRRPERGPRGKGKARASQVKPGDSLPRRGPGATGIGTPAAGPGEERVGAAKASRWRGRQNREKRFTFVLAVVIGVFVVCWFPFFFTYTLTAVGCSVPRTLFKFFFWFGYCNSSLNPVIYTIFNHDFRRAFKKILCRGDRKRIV

[10] = target: Beta-1 adrenergic receptor (Homo sapiens) (UniProt P08588); assay: Binding affinity to beta 1 receptor (unknown origin) at 10 uM by radioligand binding assay relative to control
Chain of Beta-1 adrenergic receptor (Homo sapiens) (P08588 whole entry, looked up): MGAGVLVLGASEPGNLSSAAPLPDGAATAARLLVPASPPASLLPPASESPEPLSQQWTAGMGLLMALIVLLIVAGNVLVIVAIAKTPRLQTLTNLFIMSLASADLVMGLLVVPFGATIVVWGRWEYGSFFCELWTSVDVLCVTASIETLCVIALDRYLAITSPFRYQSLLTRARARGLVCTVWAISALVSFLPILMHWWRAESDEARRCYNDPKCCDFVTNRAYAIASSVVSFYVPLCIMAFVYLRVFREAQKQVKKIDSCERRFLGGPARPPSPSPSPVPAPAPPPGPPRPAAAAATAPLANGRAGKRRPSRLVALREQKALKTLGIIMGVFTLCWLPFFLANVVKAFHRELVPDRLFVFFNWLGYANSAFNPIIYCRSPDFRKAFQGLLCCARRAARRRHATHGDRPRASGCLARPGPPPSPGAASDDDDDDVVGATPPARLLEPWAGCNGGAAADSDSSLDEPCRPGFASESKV

[11] = Toxicity in female Sprague-Dawley rat assessed as change in organ weight at 2.5 to 7.5 mg/kg, po administered once daily for 4 weeks and measured after 4 weeks; type: organism-based; conditions: in vivo, 1344 h, dose 2.5-7.5 mg/kg, time 8 weeks
[12] = Mutagenicity in Salmonella typhimurium TA98 by Ames test; type: toxicity; conditions: salmonella enterica subsp. enterica serovar typhimurium
[13] = Toxicity in male Sprague-Dawley rat assessed as slow respiration at 7.5 mg/kg, po administered once daily for 4 weeks; type: organism-based; conditions: in vivo, 672 h
[14] = Toxicity in female Sprague-Dawley rat assessed as change in hematology at 2.5 to 7.5 mg/kg, po administered once daily for 4 weeks and measured after 4 weeks; type: organism-based; conditions: in vivo, 1344 h, dose 2.5-7.5 mg/kg, time 8 weeks
[15] = Toxicity in male Sprague-Dawley rat assessed as change in organ weight at 2.5 to 7.5 mg/kg, po administered once daily for 4 weeks and measured after 4 weeks; type: organism-based; conditions: in vivo, 1344 h, dose 2.5-7.5 mg/kg, time 8 weeks
[16] = target: Neuronal acetylcholine receptor subunit alpha-7 (Homo sapiens) (UniProt P36544); assay: Binding affinity to nACHR-alpha7 (unknown origin) at 10 uM by radioligand binding assay relative to control
[17] = Toxicity in male Sprague-Dawley rat assessed as change in bone marrow smears at 2.5 to 7.5 mg/kg, po administered once daily for 4 weeks and measured after 4 weeks; type: organism-based; conditions: in vivo, 1344 h, dose 2.5-7.5 mg/kg, time 8 weeks
Mus musculus [18] = assay: Antipsychotic activity against MK-801 induced hyperlocomotion in male C57BL/6J mouse model at 3 mg/kg, IG […] followed by compound addition and measured after 30 mins by open field test; type: functional, organism-based
[19] = Toxicity in Sprague-Dawley rat assessed as good general health at 2.5 to 7.5 mg/kg, po administered once daily for 4 weeks and measured after 4 weeks; type: organism-based; conditions: in vivo, 1344 h, dose 2.5-7.5 mg/kg, time 8 weeks
[20] = target: Histamine H2 receptor (Homo sapiens) (UniProt P25021); assay: Binding affinity to H2 receptor (unknown origin) at 10 uM by radioligand binding assay relative to control
[21] = target: T1, Trace amine-associated receptor 1 (Homo sapiens, UniProt Q96RJ0); assay: Agonist activity at human TAAR1 extracted from CHO-K1 cell membrane coexpressing AGTRL1/Gi by cAMP assay; type: functional, cell membranes
T1 sequence (Q96RJ0 whole entry): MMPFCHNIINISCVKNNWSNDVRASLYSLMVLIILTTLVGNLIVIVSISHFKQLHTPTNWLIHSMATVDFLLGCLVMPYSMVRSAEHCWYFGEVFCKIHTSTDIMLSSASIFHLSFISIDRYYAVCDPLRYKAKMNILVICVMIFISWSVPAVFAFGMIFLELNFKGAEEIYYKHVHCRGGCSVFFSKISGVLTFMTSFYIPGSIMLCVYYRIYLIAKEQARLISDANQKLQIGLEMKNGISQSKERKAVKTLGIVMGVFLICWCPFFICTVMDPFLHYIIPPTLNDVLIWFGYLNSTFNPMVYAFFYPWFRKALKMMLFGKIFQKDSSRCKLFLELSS

[22] = AUClast in male mouse at 10 mg/kg, IG measured after 24 hrs; type: ADME, organism-based; conditions: in vivo, po
[23] = target: Trace amine-associated receptor 1 (Mus musculus, UniProt Q923Y8); assay: Agonist activity at mouse TAAR1; type: functional
Chain of Trace amine-associated receptor 1 (Mus musculus, UniProt Q923Y8) (Q923Y8 whole entry): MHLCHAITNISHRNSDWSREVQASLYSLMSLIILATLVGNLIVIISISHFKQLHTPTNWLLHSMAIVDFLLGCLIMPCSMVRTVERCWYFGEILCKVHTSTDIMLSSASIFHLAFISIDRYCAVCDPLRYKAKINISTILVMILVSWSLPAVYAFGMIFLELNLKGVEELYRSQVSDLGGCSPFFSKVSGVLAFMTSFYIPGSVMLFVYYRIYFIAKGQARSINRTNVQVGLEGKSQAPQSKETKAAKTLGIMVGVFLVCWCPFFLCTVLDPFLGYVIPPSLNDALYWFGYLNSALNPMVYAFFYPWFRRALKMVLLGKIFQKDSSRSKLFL

[24] = Toxicity in female Sprague-Dawley rat assessed as change in bone marrow smears at 2.5 to 7.5 mg/kg, po administered once daily for 4 weeks and measured after 4 weeks; type: organism-based; conditions: in vivo, 1344 h, dose 2.5-7.5 mg/kg, time 8 weeks
[25] = Toxicity in female Sprague-Dawley rat assessed as irritability at 7.5 mg/kg, po administered once daily for 4 weeks and measured after 4 weeks; type: organism-based; conditions: in vivo, 1344 h, time 8 weeks
[26] = Toxicity in male Sprague-Dawley rat assessed as corneal epithelial degeneration at 2.5 to 7.5 mg/kg, po administered once daily for 4 weeks and measured after 4 weeks; type: organism-based; conditions: in vivo, 1344 h, dose 2.5-7.5 mg/kg, time 8 weeks
[27] = target: Muscarinic acetylcholine receptor M1 (Homo sapiens) (UniProt P11229); assay: Binding affinity to M1 receptor (unknown origin) at 10 uM by radioligand binding assay relative to control
Chain of Muscarinic acetylcholine receptor M1 (Homo sapiens) (P11229 whole entry): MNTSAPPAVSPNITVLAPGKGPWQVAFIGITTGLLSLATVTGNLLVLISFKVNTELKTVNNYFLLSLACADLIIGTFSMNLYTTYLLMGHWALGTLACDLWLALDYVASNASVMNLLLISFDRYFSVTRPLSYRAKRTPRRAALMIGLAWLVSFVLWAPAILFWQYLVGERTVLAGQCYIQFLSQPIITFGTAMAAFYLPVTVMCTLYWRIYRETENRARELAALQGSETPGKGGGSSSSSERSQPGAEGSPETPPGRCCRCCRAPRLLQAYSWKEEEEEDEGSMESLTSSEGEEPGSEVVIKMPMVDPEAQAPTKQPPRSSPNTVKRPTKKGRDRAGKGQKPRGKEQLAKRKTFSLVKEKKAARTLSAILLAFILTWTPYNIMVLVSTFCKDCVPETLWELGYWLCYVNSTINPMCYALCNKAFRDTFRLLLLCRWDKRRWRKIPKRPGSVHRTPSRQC

Cytochrome P450 1A2 = Cytochrome P450 1A2 (Homo sapiens, UniProt P05177); assay: Inhibition of CYP1A2 in human liver microsomes in presence of NADPH by LC-MS/MS analysis; type: ADME, Microsome
[28] = target: Sodium-dependent serotonin transporter (Homo sapiens) (UniProt P31645); assay: Binding affinity to 5-HTT (unknown origin) at 10 uM by radioligand binding assay relative to control
Chain of Sodium-dependent serotonin transporter (Homo sapiens) (P31645 whole entry, looked up): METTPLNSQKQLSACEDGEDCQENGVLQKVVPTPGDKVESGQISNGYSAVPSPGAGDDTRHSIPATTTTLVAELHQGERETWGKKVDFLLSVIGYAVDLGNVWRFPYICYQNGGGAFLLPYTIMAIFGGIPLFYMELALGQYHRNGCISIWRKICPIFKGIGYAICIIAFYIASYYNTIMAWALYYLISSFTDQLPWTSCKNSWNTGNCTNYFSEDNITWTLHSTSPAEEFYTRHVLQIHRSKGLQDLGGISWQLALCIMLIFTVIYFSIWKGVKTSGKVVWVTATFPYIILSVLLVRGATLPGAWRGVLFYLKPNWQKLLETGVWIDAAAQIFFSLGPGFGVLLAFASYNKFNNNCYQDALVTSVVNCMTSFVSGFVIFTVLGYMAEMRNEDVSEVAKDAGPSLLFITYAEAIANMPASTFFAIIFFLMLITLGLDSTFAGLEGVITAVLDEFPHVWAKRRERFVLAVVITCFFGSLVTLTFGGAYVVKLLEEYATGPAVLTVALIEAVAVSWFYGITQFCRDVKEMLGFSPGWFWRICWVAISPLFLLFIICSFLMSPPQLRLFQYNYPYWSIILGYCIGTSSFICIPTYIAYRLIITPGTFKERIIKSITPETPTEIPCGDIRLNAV

[29] = Toxicity in female Beagle dog assessed as change in urinalysis at 0.75 to 2.5 mg/kg, IG administered once daily for 4 weeks and measured after 4 weeks; type: organism-based, Canis lupus familiaris; conditions: in vivo, po, 1344 h, dose 0.75-2.5 mg/kg, time 8 weeks
[30] = Toxicity in male Sprague-Dawley rat assessed as irritability at 7.5 mg/kg, po administered once daily for 4 weeks and measured after 4 weeks; type: organism-based; conditions: in vivo, 1344 h, time 8 weeks
[31] = Toxicity in male Sprague-Dawley rat assessed as suppression of food consumption at 7.5 mg/kg, po administered once daily for 4 weeks and measured weekly twice; type: organism-based; conditions: in vivo, 672 h

In the case of c1cc2c(s1)[C@@H]1CNCCN1CC2, the Activity [1] is reported as 5.4%, the CLint scaled at 1 µM [2] is reported as 6.8 mL/min/kg and the Activity (Mus musculus [3]) is reported as “Active; More Effective Than Aripiprazole”. It also gave an Activity [4] of 3.4%, a fraction unbound [5] of 0.668 and an Activity [6] of -1.11%. For the same compound, the Activity [7] was “inactive”, the Emax [8] was 103% and the activity at 10 µM (KCNQ1) was 28.4%. For the same compound, the Activity [9] was 72.7%, the Activity [10] was -0.11% and the Activity [11] was “Non-toxic”. The Activity [12] was “Non-toxic”, the Activity [13] was “Toxic” and the Activity [14] was “Non-toxic”. The Activity [15] was “Non-toxic”, the Activity [16] was 5.02% and the Activity [17] was “Non-toxic”. The Activity (Mus musculus [18]) was “inactive”, the Activity [19] was “Non-toxic” and the Activity [20] was 1.39%. It also gave an EC50 [21] of 22 nM, an AUC(0-t) at 24 h [22] of 21.6 µM·h and an EC50 [23] of 72.3 nM. For the same compound, the Activity [24] was “Non-toxic”, the Activity [25] was “Non-toxic” and the Activity [26] was “Non-toxic”. For the same compound, the Activity [27] was 26.5%, the IC50 (Cytochrome P450 1A2) was > 50000 nM and the Activity [28] was 1.76%. The Activity [29] was “Non-toxic”, the Activity [30] was “Non-toxic” and the Activity [31] was “Toxic”.
